Test results taken from ChEMBL document CHEMBL6177931, “Exploring diverse frontiers: Advancements of bioactive 4-aminoquinoline-based molecular hybrids in targeted therapeutics and beyond” (Eur J Med Chem, 2024).
Converted amounts (≈) assume the structure as drawn.

Assays:
[1] = system: MCF7; experiment: Antiproliferative activity against human MCF7 cells; assay type: functional, cell-based
[2] = system: A549; experiment: Antiproliferative activity against human A549 cells; assay type: functional, cell-based
[3] = target: T1, Cholinesterase (Homo sapiens, UniProt P06276); experiment: Inhibition of human BChE
T1 sequence (P06276 whole entry): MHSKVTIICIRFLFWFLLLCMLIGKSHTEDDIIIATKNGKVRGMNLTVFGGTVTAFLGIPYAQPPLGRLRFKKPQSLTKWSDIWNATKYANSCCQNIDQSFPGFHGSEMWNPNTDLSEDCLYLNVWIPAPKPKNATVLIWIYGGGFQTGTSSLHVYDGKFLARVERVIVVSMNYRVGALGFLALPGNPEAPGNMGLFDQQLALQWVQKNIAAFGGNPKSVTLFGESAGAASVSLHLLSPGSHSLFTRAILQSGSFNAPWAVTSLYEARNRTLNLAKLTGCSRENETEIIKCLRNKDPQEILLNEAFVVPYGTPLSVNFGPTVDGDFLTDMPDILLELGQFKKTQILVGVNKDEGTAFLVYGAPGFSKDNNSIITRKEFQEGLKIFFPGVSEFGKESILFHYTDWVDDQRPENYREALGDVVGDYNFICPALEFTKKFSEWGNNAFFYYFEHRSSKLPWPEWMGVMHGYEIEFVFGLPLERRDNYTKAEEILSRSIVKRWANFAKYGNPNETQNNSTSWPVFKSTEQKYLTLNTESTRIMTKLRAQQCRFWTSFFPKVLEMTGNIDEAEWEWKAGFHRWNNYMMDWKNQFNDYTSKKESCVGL

[4] = target: T2, Acetylcholinesterase (Homo sapiens, UniProt P22303); experiment: Inhibition of human AChE
T2 sequence (P22303 whole entry): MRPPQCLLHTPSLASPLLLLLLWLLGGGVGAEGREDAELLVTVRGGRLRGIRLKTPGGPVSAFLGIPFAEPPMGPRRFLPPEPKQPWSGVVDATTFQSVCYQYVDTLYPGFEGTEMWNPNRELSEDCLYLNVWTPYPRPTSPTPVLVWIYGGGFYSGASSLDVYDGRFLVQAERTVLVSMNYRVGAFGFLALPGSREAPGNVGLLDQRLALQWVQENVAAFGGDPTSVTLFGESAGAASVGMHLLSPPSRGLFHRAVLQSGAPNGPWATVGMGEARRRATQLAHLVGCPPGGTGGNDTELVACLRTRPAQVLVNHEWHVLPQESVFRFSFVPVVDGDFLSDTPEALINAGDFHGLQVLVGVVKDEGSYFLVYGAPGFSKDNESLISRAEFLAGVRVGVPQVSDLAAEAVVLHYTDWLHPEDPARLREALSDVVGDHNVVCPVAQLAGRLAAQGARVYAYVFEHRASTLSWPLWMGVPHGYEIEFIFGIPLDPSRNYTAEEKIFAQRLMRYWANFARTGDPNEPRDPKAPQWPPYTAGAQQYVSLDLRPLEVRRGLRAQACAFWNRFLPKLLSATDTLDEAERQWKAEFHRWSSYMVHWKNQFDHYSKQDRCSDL

[5] = target: T3, Cholinesterase (Equus caballus, UniProt P81908); experiment: Inhibition of equine serum BChE using […] as substrate measured within 2 mins
T3 sequence (P81908 whole entry): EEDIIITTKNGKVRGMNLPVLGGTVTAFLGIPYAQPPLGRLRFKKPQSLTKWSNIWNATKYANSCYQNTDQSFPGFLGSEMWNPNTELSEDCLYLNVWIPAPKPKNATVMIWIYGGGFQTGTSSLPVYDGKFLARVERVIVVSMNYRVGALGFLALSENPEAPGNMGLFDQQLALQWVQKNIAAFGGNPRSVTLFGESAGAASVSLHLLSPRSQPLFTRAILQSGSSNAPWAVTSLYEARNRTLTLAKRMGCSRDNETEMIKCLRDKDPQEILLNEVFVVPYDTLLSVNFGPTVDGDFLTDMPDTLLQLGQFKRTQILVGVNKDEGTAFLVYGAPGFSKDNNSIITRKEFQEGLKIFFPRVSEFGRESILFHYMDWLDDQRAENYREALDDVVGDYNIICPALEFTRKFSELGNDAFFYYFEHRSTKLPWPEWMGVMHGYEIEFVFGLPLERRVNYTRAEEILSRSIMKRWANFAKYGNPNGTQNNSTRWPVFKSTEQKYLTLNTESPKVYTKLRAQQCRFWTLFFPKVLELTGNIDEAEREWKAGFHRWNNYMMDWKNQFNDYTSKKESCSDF

[6] = target: T4, Acetylcholinesterase (Electrophorus electricus, UniProt O42275); experiment: Inhibition of electric eel AChE using […] as substrate measured within 2 mins
T4 sequence (O42275 whole entry): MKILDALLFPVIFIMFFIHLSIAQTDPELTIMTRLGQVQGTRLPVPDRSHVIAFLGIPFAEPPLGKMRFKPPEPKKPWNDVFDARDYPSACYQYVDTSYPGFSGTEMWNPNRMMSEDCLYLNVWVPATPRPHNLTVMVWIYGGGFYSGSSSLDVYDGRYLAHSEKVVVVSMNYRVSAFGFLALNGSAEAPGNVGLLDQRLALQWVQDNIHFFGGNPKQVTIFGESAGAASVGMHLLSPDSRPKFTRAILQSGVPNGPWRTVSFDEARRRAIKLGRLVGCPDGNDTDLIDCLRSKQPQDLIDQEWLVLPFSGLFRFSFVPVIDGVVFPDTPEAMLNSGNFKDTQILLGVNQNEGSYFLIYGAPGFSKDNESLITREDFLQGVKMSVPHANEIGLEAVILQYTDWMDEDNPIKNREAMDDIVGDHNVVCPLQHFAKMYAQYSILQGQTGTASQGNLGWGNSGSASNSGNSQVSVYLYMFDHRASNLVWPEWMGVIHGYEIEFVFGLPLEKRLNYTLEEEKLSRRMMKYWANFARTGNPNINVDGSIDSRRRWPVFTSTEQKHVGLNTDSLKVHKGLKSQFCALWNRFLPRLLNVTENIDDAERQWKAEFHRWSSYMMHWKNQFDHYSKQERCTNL

[7] = system: Mycobacterium tuberculosis; experiment: Antitubercular activity against Mycobacterium tuberculosis H37Rv; assay type: functional
[8] = system: Mycobacterium tuberculosis; experiment: Antitubercular activity against Mycobacterium tuberculosis H37Rv assessed as inhibition of bacterial growth at 250 microg/ml relative to control; assay type: functional
[9] = target: T2, Acetylcholinesterase; experiment: Inhibition of human erythrocyte AChE using acetylthiocholine as substrate preincubated for 5 mins followed by substrate addition by Ellman's reagent based spectrophotometric analysis
[10] = Selectivity index, ratio of IC50 for cytotoxicity against African green monkey Vero cells to IC50 for antiplasmodial activity against D-sorbitol synchronized chloroquine-resistant Plasmodium falciparum W2; assay type: toxicity, cell-based; settings: read-out: Ratio IC50
[11] = system: Candida albicans; experiment: Antifungal activity against Candida albicans MTCC 183 by agar streak dilution method; assay type: functional
[12] = system: Aspergillus niger; experiment: Antifungal activity Aspergillus niger MTCC 282 by agar streak dilution method; assay type: organism-based
[13] = target: T2, Acetylcholinesterase; experiment: Inhibition of recombinant human AchE by Ellman's reagent based spectrophotometric analysis
[14] = target: T1, Cholinesterase; experiment: Inhibition of human BchE by Ellman's reagent based spectrophotometric analysis
[15] = system: Pseudomonas aeruginosa; experiment: Antibacterial activity against Pseudomonas aeruginosa MTCC 741 by agar streak dilution method; assay type: functional
[16] = system: Escherichia coli; experiment: Antibacterial activity against Escherichia coli MTCC 739 by agar streak dilution method; assay type: functional
[17] = system: Bacillus subtilis; experiment: Antibacterial activity against Bacillus subtilis MTCC 619 by agar streak dilution method; assay type: functional
[18] = system: Staphylococcus aureus; experiment: Antibacterial activity against Staphylococcus aureus MTCC 96 by agar streak dilution method; assay type: functional
[19] = system: HL-60; experiment: Cytotoxicity against human HL-60 cells assessed as reduction in cell viability incubated for 24 hrs by MTT assay; assay type: functional, cell-based; settings: HL-60, 24 h
[20] = system: Jurkat E6.1; experiment: Cytotoxicity against human Jurkat E6.1 cells assessed as reduction in cell viability incubated for 24 hrs by MTT assay; assay type: functional, cell-based; settings: Jurkat E6.1, 24 h
[21] = target: T3, Cholinesterase; experiment: Inhibition of equine serum BChE using […] as substrate measured after 2 mins by Ellman's reagent based spectrophotometric analysis
[22] = target: T4, Acetylcholinesterase; experiment: Inhibition of electric eel AChE using […] as substrate measured after 2 mins by Ellman's reagent based spectrophotometric analysis
[23] = system: HepG2; experiment: Antiproliferative activity against human HepG2 cells assessed as reduction in cell proliferation incubated for 24 hrs by MTT assay; assay type: functional, cell-based; settings: HepG2, 24 h
[24] = Inhibition of ConA-induced IL-6 secretion in female BALB/c mouse splenocyte incubated for 48 hrs by ELISA; assay type: functional, cell-based
[25] = Inhibition of ConA-induced IL-1beta secretion in female BALB/c mouse splenocyte incubated for 48 hrs by ELISA; assay type: functional, cell-based
[26] = Inhibition of ConA-induced TNF-alpha secretion in female BALB/c mouse splenocyte incubated for 48 hrs by ELISA; assay type: functional, cell-based
[27] = system: Proteus vulgaris; experiment: Antibacterial activity against Proteus vulgaris ATCC6380; assay type: functional
[28] = system: Enterococcus faecalis; experiment: Antibacterial activity against Enterococcus faecalis ATCC13047; assay type: functional
[29] = system: Staphylococcus epidermidis; experiment: Antibacterial activity against Staphylococcus epidermidis; assay type: functional
[30] = system: Mycolicibacterium smegmatis; experiment: Antibacterial activity against Mycobacterium smegmatis; assay type: functional
[31] = system: Klebsiella oxytoca; experiment: Antibacterial activity against Klebsiella oxytoca ATCC8724; assay type: functional
[32] = system: Pseudomonas mevalonii; experiment: Antibacterial activity against Pseudomonas mevalonii; assay type: functional; settings: Pseudomonas sp. 'mevalonii'
[33] = system: Bacillus subtilis; experiment: Antibacterial activity against Bacillus subtilis ATCC19659; assay type: functional
[34] = system: Pseudomonas aeruginosa; experiment: Antibacterial activity against Pseudomonas aeruginosa; assay type: functional
[35] = system: Escherichia coli; experiment: Antibacterial activity against Escherichia coli ATCC25922; assay type: functional
[36] = system: Staphylococcus aureus; experiment: Antibacterial activity against Staphylococcus aureus; assay type: functional
[37] = system: NCI-H460; experiment: Anticancer activity against human NCI-H460 cells assessed as cell growth inhibition incubated for 72 hrs by MTT assay; assay type: functional
[38] = system: Z-138; experiment: Anticancer activity against human Z138 cells assessed as cell growth inhibition incubated for 72 hrs by CellTiter96 aqueous Non-Radioactive Cell Proliferation Assay; assay type: functional
[39] = system: HCT-116; experiment: Anticancer activity against human HCT-116 cells assessed as cell growth inhibition incubated for 72 hrs by MTT assay; assay type: functional
[40] = system: MCF7; experiment: Antiproliferative activity against human MCF7 cells assessed as cell growth inhibition incubated for 72 hrs by MTT assay; assay type: functional
[41] = system: LN-229; experiment: Anticancer activity against human LN-229 cells assessed as cell growth inhibition by MTS assay; assay type: functional
[42] = Anticancer activity against human DND41 cells assessed as cell growth inhibition incubated for 72 hrs by CellTiter96 aqueous Non-Radioactive Cell Proliferation Assay; assay type: functional
[43] = system: HL-60; experiment: Anticancer activity against human HL-60 cells assessed as cell growth inhibition incubated for 72 hrs by CellTiter96 aqueous Non-Radioactive Cell Proliferation Assay; assay type: functional
[44] = system: CAPAN-1; experiment: Anticancer activity against human CAPAN-1 cells assessed as cell growth inhibition by MTS assay; assay type: functional
[45] = system: K562; experiment: Anticancer activity against human K562 cells assessed as cell growth inhibition incubated for 72 hrs by CellTiter96 aqueous Non-Radioactive Cell Proliferation Assay; assay type: functional
[46] = Antiproliferative activity against human Caco-2 cells assessed as cell growth inhibition incubated for 72 hrs by MTT assay; assay type: toxicity, cell-based
[47] = Cytotoxicity against MDCK cells assessed as cell growth inhibition incubated for 72 hrs by MTT assay; assay type: toxicity, cell-based, Canis lupus familiaris; settings: dog

CC(=O)n1c2ccccc2c(=O)c2c(-n3ccnc3)nc3ccc(Br)cc3c21
IC50 [1]: 620 nM
IC50 [2]: 440 nM

COn1cc(CCNC(=S)NCCCCCNc2c3c(nc4ccccc24)CCCC3)c2ccccc21
IC50 [3]: 39 nM
IC50 [4]: 70 nM

Nc1c2c(nc3c1C(c1ccc(F)cc1)C1=C(O3)C(=O)c3ccccc3C1=O)CCCC2 (stereo unspecified)
IC50 [5]: 13800 nM
IC50 [6]: 890 nM

Cc1cc(C(=O)NNc2ccnc3cc(Cl)ccc23)c2ccccc2n1
MIC [7]: 42 µM (≈ 15.2 µg/mL)
inhibition at 250 µg/mL [8]: 98%

Cc1ccc(S(=O)(=O)NCCCCCNc2c3c(nc4ccccc24)CCCC3)cc1
IC50 [3]: 68 nM
IC50 [9]: 62 nM

O=C1c2ccc(N3CCN(CCO)CC3)cc2C(=O)N1CCCNc1ccnc2cc(Cl)ccc12
selectivity ratio [10]: > 4200

CCCOc1ccc(/C=N/Nc2cc(C)nc3ccc(Cl)cc23)cc1
MIC [11]: 12.5 µg/mL (≈ 35.3 µM)
MIC [12]: 25 µg/mL (≈ 70.7 µM)

S=C(NCCCCNc1c2c(nc3ccccc13)CCCC2)NCCc1c[nH]c2ccccc12
IC50 [3]: 76 nM
IC50 [4]: 25 nM

Clc1ccc2c(NCCCCCCCCNC34CC5CC(CC(C5)C3)C4)ccnc2c1
Ki [13]: 75 nM
Ki [14]: 91 nM

CCCCCCOc1ccc(/C=N/Nc2cc(C)nc3ccc(Cl)cc23)cc1
MIC [15]: 12.5 µg/mL (≈ 31.6 µM)
MIC [16]: 6.5 µg/mL (≈ 16.4 µM)
MIC [17]: 12.5 µg/mL (≈ 31.6 µM)
MIC [18]: 12.5 µg/mL (≈ 31.6 µM)

CC(C)(C)c1ccc(/C=N/CCNc2c3c(nc4ccccc24)CCCCC3)c(C(C)(C)C)c1O
IC50 [3]: 419 nM
IC50 [9]: 4030 nM

CO[C@H]1/C=C/O[C@@]2(C)Oc3c(C)c(O)c4c(O)c(c(/C=N/N5CCN(C)CC5)c(O)c4c3C2=O)NC(=O)/C(C)=C\C=C\[C@H](C)[C@H](O)[C@@H](C)[C@@H](O)[C@@H](C)[C@H](OC(C)=O)[C@@H]1C [RIFAMPIN]
inhibition at 250 µg/mL [8]: 98%

COc1ccc(/C=C/C(=O)c2ccc(Nc3ccnc4cc(Cl)ccc34)cc2)c(OC)c1
IC50 [19]: 13500 nM
IC50 [20]: 10400 nM

COc1cc(/C=C/C(=O)NCCNc2cc(C)nc3ccccc23)ccc1OCc1ccc(Br)cc1
IC50 [21]: 1180 nM
IC50 [22]: 620 nM

Cc1ncsc1/C=N/NC(=O)c1ccc(Nc2ccnc3ccccc23)cc1
IC50 [23]: > 80000 nM

CCCCCCCCOc1cc(/C=N/Nc2cc(C)nc3ccc(Cl)cc23)cc(OCCCCCCCC)c1OCCCCCCCC
MIC [15]: 6.25 µg/mL (≈ 9.19 µM)
MIC [16]: 12.5 µg/mL (≈ 18.4 µM)
MIC [17]: 25 µg/mL (≈ 36.7 µM)
MIC [18]: 6.25 µg/mL (≈ 9.19 µM)

C=CC1(O)c2ccccc2Nc2c1c(-n1ccnc1)nc1ccc(Br)cc21 (stereo unspecified)
IC50 [1]: 540 nM
IC50 [2]: 690 nM

CCN(CCO)CCCC(C)Nc1ccnc2cc(Cl)ccc12 (stereo unspecified) [HYDROXYCHLOROQUINE]
IC50 [24]: 16500 nM
IC50 [25]: 3510 nM
IC50 [26]: 10000 nM

COc1cc(/C=C/C(=O)c2cccc(Nc3ccnc4cc(Cl)ccc34)c2)cc(OC)c1OC
IC50 [19]: 2150 nM
IC50 [20]: 1930 nM

CC1(C)CC[C@]2(C(=O)OCCOCCNc3ccnc4ccc(Cl)cc34)CC[C@]3(C)C(=CC[C@@H]4[C@@]5(C)CC[C@H](O)C(C)(C)[C@@H]5CC[C@]43C)[C@@H]2C1
MIC [27]: 2500 µg/mL (≈ 3540 µM)
MIC [28]: 1250 µg/mL (≈ 1770 µM)
MIC [29]: 2500 µg/mL (≈ 3540 µM)
MIC [30]: 1250 µg/mL (≈ 1770 µM)
MIC [31]: 2500 µg/mL (≈ 3540 µM)
MIC [32]: 1250 µg/mL (≈ 1770 µM)
MIC [33]: 2500 µg/mL (≈ 3540 µM)
MIC [34]: 2500 µg/mL (≈ 3540 µM)
MIC [35]: 1250 µg/mL (≈ 1770 µM)
MIC [36]: 2500 µg/mL (≈ 3540 µM)

C=C(CC(=O)OC)C(=O)NCCCCNc1ccnc2cc(Cl)ccc12
GI50 [37]: 2000 nM
GI50 [38]: 1900 nM
GI50 [39]: 2000 nM
GI50 [40]: 800 nM
GI50 [41]: 1100 nM
GI50 [42]: 3100 nM
GI50 [43]: 1900 nM
GI50 [44]: 1300 nM
GI50 [45]: 8100 nM

Clc1ccc2c(Nc3cccc(-c4nc5ccccc5[nH]4)c3)ccnc2c1
GI50 at 72 h [46]: 1000 nM
IC50 at 72 h [47]: 20400 nM
